Data from patent publication US20130338142A1, “IMIDAZOPYRAZINE SYK INHIBITORS” (Gilead Connecticut, Inc., priority 2012, published 2013).
In brackets after ≈: the same amount, converted by molar mass.

Columns and labels:
[1] = Kinetic solubility study; conditions: aqueous media, 37 °C, kinetic from dmso stock
Experimental: The compounds tested (as listed in Table 2 below) were dissolved in dimethyl sulfoxide (DMSO) at a 10 mM concentration. A 3 μL sample aliquot of the DMSO solution is then added to 297 μL of desired aqueous media (pH 2, pH 5.4, and pH 7.4). The sample is then incubated for 24 hrs at 37° C. with shaking. After 24 hrs the samples are centrifuged, an aliquot of the supernatant liquid is removed and analyzed by HPLC. The compound concentration in the sample is determined by reference to a sample of the compound with known standard concentration.

[2] = biological target: Syk (Homo sapiens, UniProt P43405); experiment: High throughput Syk assay (TR-FRET, KinEASE); type: biochemical; conditions: Syk TR-FRET assay of Example B2; 3 μM ATP, 0.5 nM Syk
Experimental: The following high throughput Syk assay was performed on the compounds of Table 1 as follows.
Syk activity was measured by detecting phosphorylated peptide substrate formation using antibody against phosphorylated peptide substrate. This is a time-resolved fluorescence resonance energy transfer (TR-FRET) immunoassay, based on the KinEASE Assay (Cisbio). […] Test compounds (in DMSO) were spotted into 384 well plates using a Labcyte® Echo 550 Liquid Handling System prior to addition of Syk enzyme and peptide substrate. Reaction solutions were delivered using a Multi-Flo (Bio-Tek Instruments). The enzyme and peptide solution was incubated with compound for 60 minutes at room temp before the reaction was initiated by the addition of ATP. […] The europium donor was excited using a 340-nm excitation filter with a 30-nm band pass. Energy transfer to the tracer was measured using a filter centered at 665 nm with a 10 nm bandpass. This signal was then referenced to the emission from europium peak, using a 615 nm, 10-nm bandpass filter. The “emission ratio” was calculated as the 665 nm signal divided by the 615 nm signal. Percentage of inhibition was calculated as below:
% Inhibition=100×(RatioSample−Ratio0% Inhibition)/(Ratio100% Inhibition−Ratio0% Inhibition)

IC50 [2] [nM] | SMILES | other results
 | COc1cc(Nc2nc(-c3ccc4c(c3)NCCO4)cn3ccnc23)ccc1N1CCOCC1 [Compound 14x, 6-(3,4-dihydro-2H-benzo[b][1,4]oxazin-6-yl)-N-(3-methoxy-4-moipholinophenyl)imidazo[1,2-a]pyrazin-8-amine, reference compound] | solubility at 24 h ([1]; pH 2, aqueous buffer): 87 µM (≈ 39.9 µg/mL); solubility at 24 h ([1]; pH 5.4, aqueous buffer): 10 µM (≈ 4.59 µg/mL); solubility at 24 h ([1]; pH 7.4, aqueous buffer): 8 µM (≈ 3.67 µg/mL)
 | c1cn2cc(-c3ccc4c(c3)NCCO4)nc(Nc3ccc(N4CCN(C5COC5)CC4)cc3)c2n1 [Compound 24, 6-(3,4-dihydro-2H-benzo[b][1,4]oxazin-6-yl)-N-(4-(4-(oxetan-3-yl)piperazin-1-yl)phenyl)imidazo[1,2-a]pyrazin-8-amine] | solubility at 24 h ([1]; pH 2, aqueous buffer): 100 µM (≈ 48.4 µg/mL); solubility at 24 h ([1]; pH 5.4, aqueous buffer): 61 µM (≈ 29.5 µg/mL); solubility at 24 h ([1]; pH 7.4, aqueous buffer): 33 µM (≈ 16 µg/mL)
 | c1cn2cc(-c3cnc4c(c3)NCCO4)nc(Nc3ccc(N4CCOCC4)cc3)c2n1 [Compound 28x, 6-(2,3-dihydro-1H-pyrido[2,3-b][1,4]oxazin-7-yl)-N-(4-morpholinophenyl)imidazo[1,2-a]pyrazin-8-amine, reference compound] | solubility at 24 h ([1]; pH 2, aqueous buffer): 90 µM (≈ 38.7 µg/mL); solubility at 24 h ([1]; pH 5.4, aqueous buffer): 9 µM (≈ 3.87 µg/mL); solubility at 24 h ([1]; pH 7.4, aqueous buffer): 9 µM (≈ 3.87 µg/mL)
5 | c1cn2cc(-c3cnc4c(c3)NCCO4)nc(Nc3cnn(C4CCOCC4)c3)c2n1 [Compound 44, 6-(2,3-dihydro-1H-pyrido[2,3-b][1,4]oxazin-7-yl)-N-(1-(tetrahydro-2H-pyran-4-yl)-1H-pyrazol-4-yl)imidazo[1,2-a]pyrazin-8-amine] | 
7 | COc1cc(Nc2nc(-c3cnc4c(c3)NCCO4)cn3ccnc23)ccc1N1CCC[C@](C)(O)C1 [Compound 52, (S)-1-(4-((6-(2,3-dihydro-1H-pyrido[2,3-b][1,4]oxazin-7-yl)imidazo[1,2-a]pyrazin-8-yl)amino)-2-methoxyphenyl)-3-methylpiperidin-3-ol] | 
4 | CC(C)c1ncc(Nc2nc(-c3cnc4c(c3)NCCO4)cn3ccnc23)s1 [Compound 54, N-(6-(2,3-dihydro-1H-pyrido[2,3-b][1,4]oxazin-7-yl)imidazo[1,2-a]pyrazin-8-yl)-2-isopropylthiazol-5-amine] | 
8 | COc1cc(Nc2nc(-c3ccc4c(c3)C(=O)NCCO4)cn3ccnc23)ccc1N1CCN(C2COC2)CC1 [Compound 55, 7-(8-((3-methoxy-4-(4-(oxetan-3-yl)piperazin-1-yl)phenyl)amino)imidazo[1,2-a]pyrazin-6-yl)-3,4-dihydrobenzo[f][1,4]oxazepin-5(2H)-one] | 
2 | COc1cc(Nc2nc(-c3cnc4c(c3)NCCS4)cn3ccnc23)ccc1N1CCOCC1 [Compound 58, 6-(2,3-dihydro-1H-pyrido[2,3-b][1,4]thiazin-7-yl)-N-(3-methoxy-4-morpholinophenyl)imidazo[1,2-a]pyrazin-8-amine] | 
39 | COc1cc(Nc2nc(-c3cnc4c(c3)N(C)C(=O)CO4)cn3ccnc23)ccc1N1CCOCC1 [Compound 60, 7-(8-((3-methoxy-4-morpholinophenyl)amino)imidazo [1,2-a]pyrazin-6-yl)-1-methyl-1H-pyrido[2,3-b][1,4]oxazin-2(3H)-one] | 
9 | CN(C)C[C@@H]1CN(c2ccc(Nc3nc(-c4cnc5c(c4)NCCO5)cn4ccnc34)cc2)CCO1 [Compound 61, (R)-6-(2,3-dihydro-1H-pyrido[2,3-b][1,4]oxazin-7-yl)-N-(4-(2-((dimethylamino)methyl)morpholino)phenyl)imidazo[1,2-a]pyrazin-8-amine] | 
8 | CC(C)N1CCN(c2ccc(Nc3nc(-c4cnc5c(c4)NCCO5)cn4ccnc34)cc2)CC1 [Compound 62, 6-(2,3-dihydro-1H-pyrido[2,3-b][1,4]oxazin-7-yl)-N-(4-(4-isopropylpiperazin-1-yl)phenyl)imidazo[1,2-a]pyrazin-8-amine] | 
18 | c1cn2cc(-c3ccc4c(c3)CNCCO4)nc(Nc3ccc(N4CCOCC4)cc3)c2n1 [Compound 78, N-(4-morpholinophenyl)-6-(2,3,4,5-tetrahydrobenzo[f][1,4]oxazepin-7-yl)imidazo[1,2-a]pyrazin-8-amine] | 
14 | COc1cc(Nc2nc(-c3cnc4c(c3)NCCO4)cn3ccnc23)ccc1N1CCOC(C)(C)C1 [Compound 81, 6-(2,3-dihydro-1H-pyrido[2,3-b][1,4]oxazin-7-yl)-N-(4-(2,2-dimethylmorpholino)-3-methoxyphenyl)imidazo[1,2-a]pyrazin-8-amine] | 
3 | c1cn2cc(-c3cnc4c(c3)NCCO4)nc(Nc3ccc(N4CCN5CCOC[C@@H]5C4)cc3)c2n1 [Compound 82, (S)-6-(2,3-dihydro-1H-pyrido[2,3-b][1,4]oxazin-7-yl)-N-(4-(hexahydropyrazino[2,1-c][1,4]oxazin-8(1H)-yl)phenyl)imidazo[1,2-a]pyrazin-8-amine] | 
10 | COc1cc(Nc2nc(-c3cnc4c(c3)NCCO4)cn3ccnc23)ccc1N1CCN(C2COC2)C(C)(C)C1 [Compound 84, 6-(2,3-dihydro-1H-pyrido[2,3-b][1,4]oxazin-7-yl)-N-(4-(3,3-dimethyl-4-(oxetan-3-yl)piperazin-1-yl)-3-methoxyphenyl)imidazo[1,2-a]pyrazin-8-amine] | 
3 | COc1cc(Nc2nc(-c3cnc4c(c3)NCCO4)cn3ccnc23)ccc1N1CCN(C(=O)[C@H](C)O)CC1 [Compound 85, (S)-1-(4-(4-((6-(2,3-dihydro-1H-pyrido[2,3-b][1,4]oxazin-7-yl)imidazo[1,2-a]pyrazin-8-yl)amino)-2-methoxyphenyl)piperazin-1-yl)-2-hydroxypropan-1-one] | 
33 | COc1cc(Nc2nc(-c3cnc4c(c3)NCCO4)cn3ccnc23)ccc1N1CC(C)(O)C1 [Compound 98, 1-(4-((6-(2,3-dihydro-1H-pyrido[2,3-b][1,4]oxazin-7-yl)imidazo[1,2-a]pyrazin-8-yl)amino)-2-methoxyphenyl)-3-methylazetidin-3-ol] | 
16 | COc1cc(Nc2nc(-c3cnc4c(c3)NCCO4)cn3ccnc23)ccc1N1CC2COCC2C1 (stereo not drawn) [Compound 99, 6-(2,3-dihydro-1H-pyrido[2,3-b][1,4]oxazin-7-yl)-N-(3-methoxy-4-(tetrahydro-1H-furo[3,4-c]pyrrol-5(3H)-yl)phenyl)imidazo[1,2-a]pyrazin-8-amine] | 
7 | OC1(c2ccc(Nc3nc(-c4cnc5c(c4)NCCO5)cn4ccnc34)cc2)CCC1 [Compound 101, 1-(4-((6-(2,3-dihydro-1H-pyrido[2,3-b][1,4]oxazin-7-yl)imidazo[1,2-a]pyrazin-8-yl)amino)phenyl)cyclobutanol] | 
8 | OC1(c2ccc(Nc3nc(-c4cnc5c(c4)NCCO5)cn4ccnc34)cc2)COC1 [Compound 102, 3-(4-((6-(2,3-dihydro-1H-pyrido[2,3-b][1,4]oxazin-7-yl)imidazo[1,2-a]pyrazin-8-yl)amino)phenyl)oxetan-3-ol] | 
3 | COc1cc(Nc2nc(-c3cnc4c(c3)NCCO4)cn3ccnc23)ccc1N1CCC2(CC1)OCCO2 [Compound 103, 6-(2,3-dihydro-1H-pyrido[2,3-b][1,4]oxazin-7-yl)-N-(3-methoxy-4-(1,4-dioxa-8-azaspiro[4.5]decan-8-yl)phenyl)imidazo[1,2-a]pyrazin-8-amine] | 
4 | COc1cc(Nc2nc(-c3cnc4c(c3)NCCO4)cn3ccnc23)ccc1N1CCC(=O)CC1 [Compound 104, 1-(4-((6-(2,3-dihydro-1H-pyrido[2,3-b][1,4]oxazin-7-yl)imidazo[1,2-a]pyrazin-8-yl)amino)-2-methoxyphenyl)piperidin-4-one] | 
5 | COc1cc(Nc2nc(-c3cnc4c(c3)NCCO4)cn3ccnc23)ccc1N1CCC(=NO)CC1 [Compound 105, 1-(4-((6-(2,3-dihydro-1H-pyrido[2,3-b][1,4]oxazin-7-yl)imidazo[1,2-a]pyrazin-8-yl)amino)-2-methoxyphenyl)piperidin-4-one oxime] | 
6 | CON=C1CCN(c2ccc(Nc3nc(-c4cnc5c(c4)NCCO5)cn4ccnc34)cc2OC)CC1 [Compound 106, 1-(4-((6-(2,3-dihydro-1H-pyrido[2,3-b][1,4]oxazin-7-yl)imidazo[1,2-a]pyrazin-8-yl)amino)-2-methoxyphenyl)piperidin-4-one O-methyl oxime] | 
17 | CO/N=C(\C)c1ccc(Nc2nc(-c3cnc4c(c3)NCCO4)cn3ccnc23)cc1 [Compound 107, (E)-1-(4-((6-(2,3-dihydro-1H-pyrido[2,3-b][1,4]oxazin-7-yl)imidazo[1,2-a]pyrazin-8-yl)amino)phenyl)ethanone O-methyl oxime] | 
7 | CO/N=C(/C)c1ccc(Nc2nc(-c3cnc4c(c3)NCCO4)cn3ccnc23)cc1 [Compound 108, (Z)-1-(4-((6-(2,3-dihydro-1H-pyrido[2,3-b][1,4]oxazin-7-yl)imidazo[1,2-a]pyrazin-8-yl)amino)phenyl)ethanone O-methyl oxime] | 
11 | c1cn2cc(-c3ccc4c(c3)NCCO4)nc(Nc3ccc(N4CCN(C5COC5)CC4)cc3)c2n1 [Example 24, 6-(3,4-dihydro-2H-benzo[b][1,4]oxazin-6-yl)-N-(4-(4-(oxetan-3-yl)piperazin-1-yl)phenyl)imidazo[1,2-a]pyrazin-8-amine] | 
